Laboratory results reported in patent EP0717995A2, “Cell degeneration suppressing and organ toxicity reducing agent” (SANWA KAGAKU KENKYUSHO CO., LTD., priority 1994, dated 1996).
Where two headings read alike, the source gives them in different places.

How the values were obtained:
Assay type in all cases: in vivo
[1] = system: spontaneous nephritis in MRL/1 mice; assay: Preventive action against spontaneous nephritis in MRL/1 mice (urinary protein, blood urea nitrogen); settings: male MRL/1 mice, positive (urinary protein 100 mg/dl or more) / survived animals
Method: Protective effect of the pharmaceutical preparation of the present invention against spontaneous nephritis in MRL/1 mice was examined (protective effect on functional reduction due to aging).
Each test sample of 1 to 10 mg/kg mixed with feed was orally administered to male MRL/1 mice of 6 weeks of age (15 animals per 1 group) twice a week for 12 weeks. During the administration period, urinary protein was measured once a week to examine positive ratio in each week of age by defining an individual showing a urinary protein level of 100 mg/dl or more as positive. Also, blood urea nitrogen was measured on the next day of the final administration to carry out serologic biochemical evaluation of the action of the compound of the present invention against nephritis, together with histopathological evaluation.

[2] = system: herpes simplex type 1 virus (HSV-1); assay: Interferon enhancer effect in mice infected with herpes simplex type 1 virus (survival); settings: BALB/c mice, HSV-1 MIYAMA strain 10 LD50; oral sulfatide for 5 days together with 4 × 10⁴ IU/kg IFN-α i.p.
Method: Synergetic effect of the simultaneous use of IFN-α and sulfatide on mice infected with herpes simplex type 1 virus (HSV-1)
A total of 10 BALB/c mice were used in one group and infected with a 10 LD₅₀ equivalent dose of HSV-1 MIYAMA strain. Intraperitoneal administration of IFN-α was carried out on the day before the inoculation of HSV-1 and just after the inoculation, and oral administration of sulfatide was carried out continuously for 5 days starting on the day before the HSV-1 inoculation until the fourth day after the inoculation. Conditions of the animals were observed until 20 days after the HSV-1 infection to calculate survival rate.

[3] = system: rats of 10 months of age
Method: Using rats of 10 months of age (8 to 9 animals per 1 group), 0.5 g/kg of carbon tetrachloride was orally administered as a hepatic toxicity substance to increase the serum GOT level to 500 KARMEN units or more after 24 hours of the administration, simultaneously carrying out oral administration of (1) indomethacin (5 mg/kg) or (2) tetracycline (10 mg/kg) as a pharmaceutical drug having hepatic toxicity, 3 times on every other day.
In the inventive substance-treated group, the sulfatide composition described in Composition Production Example (2 mg/kg as sulfatide) was orally administered simultaneously with the pharmaceutical drug having hepatic toxicity.
The GOT enzyme released in blood caused by hepatocyte destruction was measured 12 hours after completion of the drug administration, and the liver was extracted to carry out histological tissue examination.

[4] = system: mouse hepatitis virus (MHV); assay: Interferon enhancer effect in mice infected with mouse hepatitis virus (survival); settings: ICR mice, MHV Friend strain 2 LD50 i.p.; oral sulfatide used simultaneously with IFN-α i.p., once a day for 3 days
Method: Synergetic effect of the simultaneous use of interferon-α (IFN-α) and the substance of the present invention, sulfatide, on mice infected with mouse hepatitis virus (MHV)
A total of 10 ICR mice were used in one group, and intraperitoneal administration of mouse IFN-α and oral administration of […] were carried out once a day for 3 days. Just before the administration on the second day, MHV Friend strain was inoculated into the abdominal cavity in a 2 LD₅₀ equivalent dose, and conditions of the animals were observed until 14 days thereafter to calculate survival ratio.

[5] = dose 2 mg/kg oral in feed twice a week from 6 weeks of age
[6] = dose 1 mg/kg oral in feed twice a week from 6 weeks of age

Row | Compound | Changes in positive urinary protein, Weeks of Age 16 [1, 5] | Changes in positive urinary protein, Weeks of Age 17 [1, 5] | Changes in positive urinary protein, Weeks of Age 18 [1, 5] | other results
1 | III³ II³ SO₃ Ge3Cer [SB2] | 4/15 | 5/15 | 10/15 | –
2 | sialyl Lewis A | – | – | – | Changes in positive urinary protein, Weeks of Age 16 [1, 6]: 3/15; Changes in positive urinary protein, Weeks of Age 17 [1, 6]: 5/14; Changes in positive urinary protein, Weeks of Age 18 [1, 6]: 9/14
3 | sulfatide | 2/15 | 5/15 | 9/15 | average survival days [2]: significantly effective in dose-dependently prolonging average survival days; Changes in GOT, 12 hrs after Completion of Drug Administration ([3]; group c): carbon tetrachloride + indomethacin (5 mg/kg) + sulfatide composition (2 mg/kg as sulfatide, oral)): 469 ± 61.5 KARMEN units; Changes in GOT, 12 hrs after Completion of Drug Administration ([3]; group d): carbon tetrachloride + tetracycline (10 mg/kg) + sulfatide composition (2 mg/kg as sulfatide, oral)): 439 ± 30.5 KARMEN units; Changes in GOT, 12 hrs after Completion of Drug Administration ([3]; group e): carbon tetrachloride + sulfatide composition (2 mg/kg as sulfatide, oral)): 128 ± 48.7 KARMEN units; effect of IFN-α on average survival days [4]: further increased significantly in a dose dependent fashion
4 | COc1ccc2c(c1)c(CC(=O)O)c(C)n2C(=O)c1ccc(Cl)cc1 [indomethacin, reference compound] | – | – | – | Changes in GOT, 12 hrs after Completion of Drug Administration ([3]; group a): carbon tetrachloride + indomethacin (5 mg/kg oral, 3 times on every other day), no sulfatide): 1054 ± 31.2 KARMEN units
5 | sialyl Lewis X | – | – | – | Changes in positive urinary protein, Weeks of Age 16 [1, 6]: 3/15; Changes in positive urinary protein, Weeks of Age 17 [1, 6]: 4/15; Changes in positive urinary protein, Weeks of Age 18 [1, 6]: 8/15
6 | CCCCCCCCCCCCCCCCOCC(COC1OC(CO)C(O)C(OS(=O)(=O)O)C1O)OC(=O)CCCCCCCCCCCCCCC [seminolipid, 3-O-(β-D-Galactopyranosyl 3-sulfate)-2-O-hexadecanoyl-1-O-hexadecyl-L-glycerol] | 3/15 | 4/15 | 8/15 | –
7 | II³ SO₃ Lac Cer [SM3] | 2/15 | 4/15 | 8/15 | –
8 | IV³ SO₃ II³ SO₃ Ge4Cer [SB1a] | 5/15 | 7/15 | 10/15 | –
